system: asymmetric di-methyl PABP1 in RKO cells; assay: In Cell Western (ICW) for asymmetric di-methyl PABP1 and DNA content in RKO cells; format: cell-based; details: Homo sapiens, RKO, In Cell Western
Method in brief: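 RKO cells treated with compound for 48 h at 37 °C, then fixed, methanol-permeabilized and stained for asymmetric di-methyl PABP1 (800 nm) with DRAQ5 DNA stain (700 nm). Signal ratio normalized to DMSO and 20 μM reference-compound controls. IC50 from nine 3-fold dilutions in triplicate.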

| IC50 | Compound |
| --- | --- |
| 3.44 µM | CNCCN(C)Cc1cccc(-c2cc(NC3CC3)c3cnn(C(C)C)c3n2)c1 [Compound 11] |
| 20 µM | CC(C)n1ncc2c(C(=O)NCc3ccccc3)cc(-c3cccc(CN(C)CCN)c3)cc21 [Compound 14] |
| 20 µM | CNCCN(C)Cc1cccc(-c2nc(NCc3cc(C)nn3C)c3cnn(C4CC4)c3n2)c1 [Compound 17] |
| 0.442 µM | CN(CCN)Cc1cccc(-c2nc(NC3CCOCC3)c3cnn(C(C)(C)C)c3n2)c1 [Compound 18] |
| 3.33 µM | CNCCN(C)Cc1cccc(-c2cc(Nc3ncc(C)s3)c3cnn(C(C)C)c3n2)c1 [Compound 20] |
| 7.37 µM | CNCCN(C)Cc1cccc(-c2cc(C(=O)NCC3CCOCC3)c3cnn(C4CCC4)c3n2)c1 [Compound 21] |
| 3.11 µM | Cc1nn(C(C)C)c2nc(-c3cccc(CN(C)CCN)c3)cc(N3CCOCC3)c12 [Compound 22, N1-(3-(1-isopropyl-3-methyl-4-morpholino-1H-pyrazolo[3,4-b]pyridin-6-yl)benzyl)-N1-methylethane-1,2-diamine] |
| 2.15 µM | CNCCN(C)Cc1cccc(-c2cc(C(=O)NCC3CCOCC3)c3cnn(C4CC4)c3n2)c1 [Compound 26] |
| 0.387 µM | CNCCN(C)Cc1cccc(-c2nc(NC3CCOCC3)c3cnn(C(C)(C)C)c3n2)c1 [Compound 27, N1-(3-(1-tert-butyl-4-(tetrahydro-2H-pyran-4-ylamino)-1H-pyrazolo[3,4-d]pyrimidin-6-yl)benzyl)-N1,N2-dimethylethane-1,2-diamine] |
| 5.21 µM | CNCCN(C)Cc1cccc(-c2cc(C(=O)NC3CCOCC3)c3cnn(C4CCC4)c3n2)c1 [Compound 29] |
| 3.05 µM | CNCCN(C)Cc1cccc(-c2ccc3cn(Cc4ccccc4)nc3n2)c1 [Compound 35] |
| 4.12 µM | CNCCN(C)Cc1cccc(-c2cc(C(=O)NCc3ccccc3F)c3cnn(C(C)C)c3n2)c1 [Compound 38] |
| 20 µM | CNCCN(C)Cc1cccc(-c2cnc3c(c2)c(Br)nn3CC2CCOCC2)c1 [Compound 39] |
| 5.94 µM | CC(C)n1ncc2c(NC3CC3)cc(-c3cccc(CN(C)CCN)c3)nc21 [Compound 41] |
| 20 µM | CC(C)n1ncc2c(C(=O)N3CCCCC3)cc(-c3cccc(CN(C)CCN)c3)nc21 [Compound 43] |
| 20 µM | CNCCN(C)Cc1cccc(-c2cc(Oc3ccccc3)c3cnn(C(C)C)c3n2)c1 [Compound 45] |
| 10.8 µM | CNC(=O)Nc1cc(-c2cccc(CN(C)CCN)c2)nc2c1cnn2C(C)C [Compound 126] |
| 20 µM | CCC(=O)c1cc(-c2cccc(CN(C)CCNC)c2)nc2c1cnn2C(C)C [Compound 128] |

| IC50 | Compound |
| --- | --- |
| 11.5 µM | CNCCN(C)Cc1cc(-c2cc(C(=O)NC3CCOCC3)c3cnn(C(C)C)c3n2)ccc1F [Compound 130] |
| 11.5 µM | CNCCN(C)Cc1cccc(-c2cc(NC(=O)NC3CCOCC3)c3cnn(C(C)C)c3n2)c1 [Compound 133] |
| 9.62 µM | CNCCN(C)Cc1cccc(-c2cc(C(=O)NCc3cnn(C)c3C)c3cnn(C(C)C)c3n2)c1 [Compound 137] |
| 7.74 µM | CNCCN(C)Cc1cccc(-c2cc(NC(=O)NC)c3cnn(C(C)C)c3n2)c1 [Compound 138] |
| 4.86 µM | CNCCN(C)Cc1cccc(-c2cc(NS(=O)(=O)N(C)C)c3cnn(C(C)C)c3n2)c1 [Compound 139] |
| 2.77 µM | CN(CCN)Cc1cccc(-c2cc(C(=O)NC3CCOCC3)c3cnn(C4CC4)c3n2)c1 [Compound 142] |
| 8.46 µM | CN(CCN)Cc1cccc(-c2cc(C(=O)NC3CCOCC3)c3cnn(CC(F)(F)F)c3n2)c1 [Compound 144] |
| 0.972 µM | CC(C)n1ncc2c(C(=O)NC3CCOCC3)cc(-c3cccc(CN(C)CCN)c3)nc21 [Compound 148] |
| 20 µM | CNCCN(C)Cc1cccc(-c2cc(N)c3cnn(C(C)C)c3n2)c1 [Compound 151] |
| 20 µM | CC(C)n1ncc2c(C(=O)N3CCCCC3)cc(-c3cccc(CNCCN)c3)nc21 [Compound 153] |
| 13.5 µM | CN(CCN)Cc1cccc(-c2cc(C(=O)NC3CCOCC3)c3cnn(C)c3n2)c1 [Compound 158] |
| 20 µM | CC(C)n1ncc2c(C(=O)NCc3ccccc3F)cc(-c3cccc(CNCCN)c3)nc21 [Compound 159] |
| 11.3 µM | CCS(=O)(=O)Nc1cc(-c2cccc(CN(C)CCNC)c2)nc2c1cnn2C(C)C [Compound 161] |
| 11.6 µM | CC(C)n1ncc2c(N3CCOCC3)cc(-c3cccc(CN(C)CCNC4CC4)c3)nc21 [Compound 163] |
| 11.9 µM | CNCCN(C)Cc1cccc(-c2cc(NS(=O)(=O)C(F)(F)F)c3cnn(C(C)C)c3n2)c1 [Compound 164] |
| 5.14 µM | CC(C)n1ncc2c(C(=O)NCC3CCOCC3)cc(-c3cccc(CN(C)CCNC4CC4)c3)nc21 [Compound 167] |
| 13.3 µM | CNCCN(C)Cc1cccc(-c2cc(NS(C)(=O)=O)c3cnn(C(C)C)c3n2)c1 [Compound 169] |
| 12.8 µM | CNCCN(C)Cc1cccc(-c2cnc3c(c2)OCC(=O)N3)c1 [Compound 355] |
